Experimental data: ChEMBL document CHEMBL4804285, “Small molecule inhibitors of cdk12/cdk13” (2019)
Where “and” joins values, the source holds several entries; their conditions need not be identical. Equal entries are not always repeated.

What was measured:
[1] = biological target: Cytochrome P450 2D6 (Homo sapiens, UniProt P10635); assay: Inhibition of CYP2D6 (unknown origin); type: ADME
[2] = biological target: T1, Cyclin-dependent kinase 13 (Homo sapiens, UniProt Q14004); assay: Binding affinity towards CDK13 (unknown origin) by Discover X assay
Target sequence in this assay (Q14004 whole entry, canonical isoform): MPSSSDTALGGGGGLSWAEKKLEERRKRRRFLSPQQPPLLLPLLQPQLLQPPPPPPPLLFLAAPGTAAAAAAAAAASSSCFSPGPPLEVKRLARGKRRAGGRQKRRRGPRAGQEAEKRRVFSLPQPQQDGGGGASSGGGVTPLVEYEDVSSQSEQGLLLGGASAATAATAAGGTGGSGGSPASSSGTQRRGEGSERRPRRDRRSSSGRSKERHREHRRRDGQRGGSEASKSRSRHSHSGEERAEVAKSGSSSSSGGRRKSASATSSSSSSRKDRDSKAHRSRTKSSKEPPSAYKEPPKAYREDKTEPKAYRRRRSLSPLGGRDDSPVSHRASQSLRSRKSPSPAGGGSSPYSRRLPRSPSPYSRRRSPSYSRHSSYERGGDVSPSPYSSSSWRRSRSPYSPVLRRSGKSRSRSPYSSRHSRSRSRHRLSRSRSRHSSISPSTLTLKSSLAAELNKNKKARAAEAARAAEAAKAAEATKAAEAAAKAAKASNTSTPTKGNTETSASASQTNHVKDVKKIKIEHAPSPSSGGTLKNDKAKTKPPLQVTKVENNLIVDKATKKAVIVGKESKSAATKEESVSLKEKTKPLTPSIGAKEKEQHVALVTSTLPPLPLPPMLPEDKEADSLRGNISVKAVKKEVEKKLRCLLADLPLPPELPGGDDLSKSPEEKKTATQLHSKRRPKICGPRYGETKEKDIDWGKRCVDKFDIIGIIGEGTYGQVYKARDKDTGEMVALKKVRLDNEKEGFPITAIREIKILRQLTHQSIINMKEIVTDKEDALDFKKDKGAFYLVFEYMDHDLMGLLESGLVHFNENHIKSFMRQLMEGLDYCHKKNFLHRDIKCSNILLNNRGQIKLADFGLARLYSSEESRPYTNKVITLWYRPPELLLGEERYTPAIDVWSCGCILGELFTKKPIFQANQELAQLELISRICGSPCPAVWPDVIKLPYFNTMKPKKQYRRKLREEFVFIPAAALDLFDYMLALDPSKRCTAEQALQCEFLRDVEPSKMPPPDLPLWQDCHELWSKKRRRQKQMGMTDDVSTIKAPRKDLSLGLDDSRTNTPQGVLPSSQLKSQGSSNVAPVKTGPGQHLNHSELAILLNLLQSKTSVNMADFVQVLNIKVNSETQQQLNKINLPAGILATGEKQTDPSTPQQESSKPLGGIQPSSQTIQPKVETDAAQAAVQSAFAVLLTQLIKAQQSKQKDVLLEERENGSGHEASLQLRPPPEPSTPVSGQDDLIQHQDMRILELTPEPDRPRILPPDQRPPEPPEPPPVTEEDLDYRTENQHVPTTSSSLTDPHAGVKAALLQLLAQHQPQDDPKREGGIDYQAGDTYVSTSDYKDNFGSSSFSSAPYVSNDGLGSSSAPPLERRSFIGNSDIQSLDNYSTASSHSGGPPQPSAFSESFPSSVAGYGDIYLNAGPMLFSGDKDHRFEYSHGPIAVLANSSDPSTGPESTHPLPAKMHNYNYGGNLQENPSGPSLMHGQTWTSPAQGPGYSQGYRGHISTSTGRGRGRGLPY

[3] = biological target: Casein kinase I isoform delta (Homo sapiens, UniProt P48730); assay: Inhibition of casein kinase 1delta (unknown origin)
[4] = biological target: Cytochrome P450 3A4 (Homo sapiens, UniProt P08684); assay: Inhibition of CYP3A4 (unknown origin); type: ADME
[5] = biological target: Casein kinase I isoform epsilon (Homo sapiens, UniProt P49674); assay: Inhibition of casein kinase 1epsilon (unknown origin)
[6] = biological target: T2, Cytochrome P450 1A2 (Homo sapiens, UniProt P05177); assay: Inhibition of CYP1A2 (unknown origin); type: ADME
T2 sequence (P05177 whole entry): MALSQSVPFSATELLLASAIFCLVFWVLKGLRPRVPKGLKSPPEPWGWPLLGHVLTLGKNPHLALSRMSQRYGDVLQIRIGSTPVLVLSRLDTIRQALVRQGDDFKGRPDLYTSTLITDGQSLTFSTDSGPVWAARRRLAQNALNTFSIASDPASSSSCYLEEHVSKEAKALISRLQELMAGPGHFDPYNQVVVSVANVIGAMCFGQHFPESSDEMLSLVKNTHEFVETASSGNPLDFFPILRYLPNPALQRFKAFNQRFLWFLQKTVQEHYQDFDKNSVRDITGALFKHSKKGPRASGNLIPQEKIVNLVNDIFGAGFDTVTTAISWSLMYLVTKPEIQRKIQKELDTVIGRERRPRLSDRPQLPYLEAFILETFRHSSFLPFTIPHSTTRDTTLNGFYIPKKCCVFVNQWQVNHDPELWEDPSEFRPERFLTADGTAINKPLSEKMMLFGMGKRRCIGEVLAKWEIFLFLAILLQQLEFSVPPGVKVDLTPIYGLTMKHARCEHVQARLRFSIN

[7] = biological target: Cyclin-dependent kinase 12 (Homo sapiens, UniProt Q9NYV4); assay: Binding affinity towards CDK12 (unknown origin) by Discover X assay
[8] = biological target: Cyclin-dependent kinase 4 (Homo sapiens) (UniProt P11802); assay: Inhibition of CDK4 (unknown origin) at 10 uM relative to control
[9] = biological target: T1, Cyclin-dependent kinase 13; assay: Inhibition of CDK13 (unknown origin) at 10 uM relative to control
Target sequence in this assay (Q14004 whole entry, looked up, canonical isoform): as the sequence (Q14004 whole entry, canonical isoform) above

[10] = biological target: Cyclin-dependent kinase 7 (Homo sapiens) (UniProt P50613); assay: Inhibition of CDK7 (unknown origin) at 10 uM relative to control
[11] = biological target: Cytochrome P450 2C9 (Homo sapiens, UniProt P11712); assay: Inhibition of CYP2C9 (unknown origin); type: ADME
[12] = biological target: Cyclin-dependent kinase 9 (Homo sapiens) (UniProt P50750); assay: Inhibition of CDK9 (unknown origin) at 10 uM relative to control
[13] = biological target: Cyclin-dependent kinase 8 (Homo sapiens) (UniProt P49336); assay: Inhibition of CDK8 (unknown origin) at 10 uM relative to control
[14] = biological target: CDK4/Cyclin D3 (Homo sapiens) (UniProt P11802+P30281); assay: Inhibition of CDK4/Cyclin D3 (unknown origin) at 10 uM relative to control; type: protein-complex assay
[15] = biological target: Cyclin-dependent kinase-like 3 (Homo sapiens) (UniProt Q8IVW4); assay: Inhibition of CDKL3 (unknown origin) at 10 uM relative to control
[16] = biological target: Cyclin-dependent kinase 4/cyclin D1 (Homo sapiens) (UniProt P11802+P24385); assay: Inhibition of CDK4/Cyclin D1 (unknown origin) at 10 uM relative to control; type: protein-complex assay
[17] = biological target: T3, Cyclin-dependent kinase-like 5 (Homo sapiens) (UniProt O76039); assay: Inhibition of CDKL5 (unknown origin) at 10 uM relative to control
T3 sequence (whole entry): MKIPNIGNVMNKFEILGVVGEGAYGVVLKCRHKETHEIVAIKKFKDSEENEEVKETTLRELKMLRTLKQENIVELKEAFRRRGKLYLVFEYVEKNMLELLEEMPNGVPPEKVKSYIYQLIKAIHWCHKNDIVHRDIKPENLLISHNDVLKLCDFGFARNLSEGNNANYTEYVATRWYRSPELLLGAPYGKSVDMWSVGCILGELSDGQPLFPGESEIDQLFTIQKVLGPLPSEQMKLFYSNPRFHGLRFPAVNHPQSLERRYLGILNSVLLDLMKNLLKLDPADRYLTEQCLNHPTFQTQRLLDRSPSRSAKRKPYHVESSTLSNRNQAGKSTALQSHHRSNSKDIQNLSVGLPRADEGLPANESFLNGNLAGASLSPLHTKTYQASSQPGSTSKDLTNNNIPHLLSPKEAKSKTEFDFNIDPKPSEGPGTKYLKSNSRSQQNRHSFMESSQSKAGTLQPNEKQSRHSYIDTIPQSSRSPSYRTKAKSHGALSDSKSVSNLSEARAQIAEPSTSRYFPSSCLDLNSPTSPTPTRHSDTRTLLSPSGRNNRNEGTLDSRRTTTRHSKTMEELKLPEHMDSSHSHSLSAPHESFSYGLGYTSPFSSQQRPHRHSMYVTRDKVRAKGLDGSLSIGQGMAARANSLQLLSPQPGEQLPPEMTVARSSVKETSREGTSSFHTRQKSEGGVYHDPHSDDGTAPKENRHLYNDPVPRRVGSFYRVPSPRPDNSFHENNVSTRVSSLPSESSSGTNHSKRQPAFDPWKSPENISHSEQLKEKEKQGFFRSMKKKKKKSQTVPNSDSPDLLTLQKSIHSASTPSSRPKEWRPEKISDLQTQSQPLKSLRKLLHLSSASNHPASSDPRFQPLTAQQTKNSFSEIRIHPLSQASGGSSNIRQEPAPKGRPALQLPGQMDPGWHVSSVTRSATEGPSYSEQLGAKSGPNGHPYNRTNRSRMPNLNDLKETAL

[18] = biological target: Cyclin-dependent kinase-like 1 (Homo sapiens) (UniProt Q00532); assay: Inhibition of CDKL1 (unknown origin) at 10 uM relative to control
[19] = biological target: T4, Cyclin-dependent kinase-like 2 (Homo sapiens) (UniProt Q92772); assay: Inhibition of CDKL2 (unknown origin) at 10 uM relative to control
T4 sequence (whole entry): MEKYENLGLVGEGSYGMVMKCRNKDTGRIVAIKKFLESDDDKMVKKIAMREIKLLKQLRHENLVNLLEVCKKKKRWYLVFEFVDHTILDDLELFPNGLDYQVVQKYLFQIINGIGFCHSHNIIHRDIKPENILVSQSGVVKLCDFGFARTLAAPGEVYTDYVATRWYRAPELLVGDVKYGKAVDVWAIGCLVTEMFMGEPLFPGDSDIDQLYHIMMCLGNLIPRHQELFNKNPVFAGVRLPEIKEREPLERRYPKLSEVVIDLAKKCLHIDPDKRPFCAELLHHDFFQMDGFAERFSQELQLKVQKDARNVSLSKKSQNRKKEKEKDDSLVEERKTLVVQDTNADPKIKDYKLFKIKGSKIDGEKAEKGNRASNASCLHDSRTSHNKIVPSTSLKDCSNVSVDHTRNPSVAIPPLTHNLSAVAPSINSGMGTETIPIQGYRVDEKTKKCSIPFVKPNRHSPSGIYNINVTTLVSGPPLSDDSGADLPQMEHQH

[20] = biological target: Cyclin-dependent kinase 19 (Homo sapiens) (UniProt Q9BWU1); assay: Inhibition of CDK11 (unknown origin) at 10 uM relative to control
[21] = biological target: Cyclin-dependent kinase 2 (Homo sapiens) (UniProt P24941); assay: Inhibition of CDK2 (unknown origin) at 10 uM relative to control
[22] = biological target: Cyclin-dependent kinase 3 (Homo sapiens) (UniProt Q00526); assay: Inhibition of CDK3 (unknown origin) at 10 uM relative to control
[23] = biological target: Cyclin-dependent kinase 5 (Homo sapiens) (UniProt Q00535); assay: Inhibition of CDK5 (unknown origin) at 10 uM relative to control
[24] = AUC (last) in mouse at 20 mg/kg, ip; type: ADME, organism-based; parameters: time 0 - last, route intraperitoneal, dose 20 mg/kg; conditions: in vivo
[25] = Cmax in mouse at 20 mg/kg, ip; type: ADME, organism-based; parameters: route intraperitoneal, dose 20 mg/kg; conditions: in vivo

Sequence of Casein kinase I isoform delta (P48730 whole entry, canonical isoform): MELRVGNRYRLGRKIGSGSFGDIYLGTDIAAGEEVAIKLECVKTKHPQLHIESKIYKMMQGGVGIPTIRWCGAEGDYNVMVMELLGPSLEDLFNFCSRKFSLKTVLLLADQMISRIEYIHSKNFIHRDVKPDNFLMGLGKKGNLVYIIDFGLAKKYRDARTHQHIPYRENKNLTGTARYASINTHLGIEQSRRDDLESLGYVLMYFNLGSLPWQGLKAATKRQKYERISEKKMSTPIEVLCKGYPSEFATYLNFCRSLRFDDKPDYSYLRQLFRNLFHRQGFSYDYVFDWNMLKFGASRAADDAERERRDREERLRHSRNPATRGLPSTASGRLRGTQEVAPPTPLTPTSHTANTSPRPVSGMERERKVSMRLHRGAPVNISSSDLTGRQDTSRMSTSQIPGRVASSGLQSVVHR
Sequence of Cytochrome P450 2C9 (P11712 whole entry): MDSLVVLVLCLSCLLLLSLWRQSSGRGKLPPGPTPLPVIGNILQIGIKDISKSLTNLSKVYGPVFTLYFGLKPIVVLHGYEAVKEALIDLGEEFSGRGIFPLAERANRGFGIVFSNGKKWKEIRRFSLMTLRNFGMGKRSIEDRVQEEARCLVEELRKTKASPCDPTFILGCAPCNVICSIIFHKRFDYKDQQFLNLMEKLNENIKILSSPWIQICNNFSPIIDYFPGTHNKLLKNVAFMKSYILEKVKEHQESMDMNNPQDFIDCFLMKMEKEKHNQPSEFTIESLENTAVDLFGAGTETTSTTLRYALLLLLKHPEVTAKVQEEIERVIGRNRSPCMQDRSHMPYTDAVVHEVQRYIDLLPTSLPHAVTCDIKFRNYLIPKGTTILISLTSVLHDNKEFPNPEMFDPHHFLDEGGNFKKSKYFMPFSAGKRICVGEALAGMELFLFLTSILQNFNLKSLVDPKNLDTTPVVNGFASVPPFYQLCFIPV
Sequence of Casein kinase I isoform epsilon (P49674 whole entry, canonical isoform): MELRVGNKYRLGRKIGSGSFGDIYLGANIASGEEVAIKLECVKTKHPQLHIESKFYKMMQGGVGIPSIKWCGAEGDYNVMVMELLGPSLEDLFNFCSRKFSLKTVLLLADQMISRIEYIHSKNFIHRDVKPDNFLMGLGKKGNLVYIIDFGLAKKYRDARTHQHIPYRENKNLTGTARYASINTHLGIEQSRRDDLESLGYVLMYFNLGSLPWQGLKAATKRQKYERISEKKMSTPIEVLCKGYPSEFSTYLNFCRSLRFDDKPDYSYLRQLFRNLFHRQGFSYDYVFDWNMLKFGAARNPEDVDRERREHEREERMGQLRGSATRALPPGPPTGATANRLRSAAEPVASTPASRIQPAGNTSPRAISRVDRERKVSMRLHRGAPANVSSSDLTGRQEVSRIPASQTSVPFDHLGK
Sequence of Cyclin-dependent kinase 8 (Homo sapiens) (P49336 whole entry): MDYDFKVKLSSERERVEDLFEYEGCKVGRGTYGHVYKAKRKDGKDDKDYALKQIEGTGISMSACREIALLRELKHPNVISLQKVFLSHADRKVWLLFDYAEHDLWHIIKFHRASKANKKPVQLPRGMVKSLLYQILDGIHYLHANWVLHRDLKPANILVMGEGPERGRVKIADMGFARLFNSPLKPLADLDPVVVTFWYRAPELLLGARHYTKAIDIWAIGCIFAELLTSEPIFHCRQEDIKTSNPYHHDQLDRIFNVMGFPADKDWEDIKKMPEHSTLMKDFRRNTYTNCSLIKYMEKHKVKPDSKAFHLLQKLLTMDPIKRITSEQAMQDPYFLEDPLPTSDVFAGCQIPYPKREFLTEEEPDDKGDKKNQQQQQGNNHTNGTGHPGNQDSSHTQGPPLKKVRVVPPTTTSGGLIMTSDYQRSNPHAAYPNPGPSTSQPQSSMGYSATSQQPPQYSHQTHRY
Sequence of Cyclin-dependent kinase 7 (Homo sapiens) (P50613 whole entry): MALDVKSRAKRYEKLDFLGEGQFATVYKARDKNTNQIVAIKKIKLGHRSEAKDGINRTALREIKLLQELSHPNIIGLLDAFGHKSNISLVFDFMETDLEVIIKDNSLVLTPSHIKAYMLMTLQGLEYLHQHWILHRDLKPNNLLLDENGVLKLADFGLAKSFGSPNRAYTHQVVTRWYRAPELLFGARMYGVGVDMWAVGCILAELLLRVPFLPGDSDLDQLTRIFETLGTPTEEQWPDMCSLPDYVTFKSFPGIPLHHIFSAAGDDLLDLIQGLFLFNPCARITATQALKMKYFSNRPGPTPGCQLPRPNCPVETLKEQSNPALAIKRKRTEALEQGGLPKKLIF
Sequence of Cytochrome P450 3A4 (P08684 whole entry, canonical isoform): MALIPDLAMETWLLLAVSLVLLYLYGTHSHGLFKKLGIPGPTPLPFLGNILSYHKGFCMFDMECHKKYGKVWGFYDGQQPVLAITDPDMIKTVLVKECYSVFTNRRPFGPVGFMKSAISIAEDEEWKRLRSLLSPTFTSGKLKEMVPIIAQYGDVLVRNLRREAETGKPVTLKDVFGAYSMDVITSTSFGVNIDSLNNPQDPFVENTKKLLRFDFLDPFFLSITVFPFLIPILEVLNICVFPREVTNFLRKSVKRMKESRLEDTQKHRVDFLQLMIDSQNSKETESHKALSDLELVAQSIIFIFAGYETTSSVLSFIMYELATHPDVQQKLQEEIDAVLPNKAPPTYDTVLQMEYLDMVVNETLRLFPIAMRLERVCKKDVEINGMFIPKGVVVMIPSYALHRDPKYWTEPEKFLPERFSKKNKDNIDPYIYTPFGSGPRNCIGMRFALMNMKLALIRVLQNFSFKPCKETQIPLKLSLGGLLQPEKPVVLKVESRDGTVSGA
Sequence of Cyclin-dependent kinase 9 (Homo sapiens) (P50750 whole entry): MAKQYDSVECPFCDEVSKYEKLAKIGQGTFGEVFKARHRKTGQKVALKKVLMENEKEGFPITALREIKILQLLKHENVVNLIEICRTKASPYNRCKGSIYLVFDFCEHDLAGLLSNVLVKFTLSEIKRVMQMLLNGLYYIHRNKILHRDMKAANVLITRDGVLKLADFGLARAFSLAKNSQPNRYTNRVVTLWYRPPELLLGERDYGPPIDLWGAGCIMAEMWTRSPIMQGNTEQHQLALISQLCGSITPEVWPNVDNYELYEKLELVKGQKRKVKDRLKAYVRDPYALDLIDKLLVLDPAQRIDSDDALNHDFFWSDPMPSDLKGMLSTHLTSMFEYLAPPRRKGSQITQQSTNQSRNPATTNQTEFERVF
Sequence of Cyclin-dependent kinase 3 (Homo sapiens) (Q00526 whole entry, looked up): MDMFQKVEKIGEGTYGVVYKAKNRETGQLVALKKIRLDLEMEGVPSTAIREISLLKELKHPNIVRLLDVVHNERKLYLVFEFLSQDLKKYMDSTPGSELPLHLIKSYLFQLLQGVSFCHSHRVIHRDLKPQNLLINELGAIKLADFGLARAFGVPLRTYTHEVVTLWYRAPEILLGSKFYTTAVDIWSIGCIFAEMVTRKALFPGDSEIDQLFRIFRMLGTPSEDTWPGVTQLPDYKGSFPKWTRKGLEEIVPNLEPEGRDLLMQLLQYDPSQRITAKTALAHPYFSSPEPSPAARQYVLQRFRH

inhibition (INH) [1] [%]	Kd [2] [nM]	IC50 [3] [nM]	inhibition (INH) [4] [%]	IC50 [5] [nM]	inhibition (INH) [6] [%]	Kd [7] [nM]	inhibition [9] [%]	inhibition [10] [%]	inhibition (INH) [11] [%]	inhibition [12] [%]	inhibition [13] [%]	inhibition [14] [%]	inhibition [15] [%]	inhibition [16] [%]	inhibition [17] [%]	inhibition [18] [%]	inhibition [19] [%]	inhibition [20] [%]	inhibition [21] [%]	Structure (SMILES)	also measured
57	6	870	89	1280	97	18														Fc1ccc2[nH]c(CNc3nc(N4CCOCC4)nc4c3ncn4-c3cscn3)nc2c1F	
	2			2620		38	12	98												COc1cc2nc(CNc3nc(N4CCOCC4)nc4c3ncn4-c3cnn(C)c3)[nH]c2cc1Cl	inhibition [8]: 99%
	9	1260		709		310														FC(F)n1cc(-n2cnc3c(NCc4nc5cc(Cl)c(Cl)cc5[nH]4)nc(N4CCOCC4)nc32)cn1	
2			55		5				23											Cn1cc(-n2cnc3c(NCc4nc5cc(F)c(F)cc5[nH]4)nc(N4CCOCC4)nc32)cn1	
-3			56		10		100	69	23	43	0	99	0	99	0	16	0	0	6	Cn1cc(-n2cnc3c(NCc4nc5c(F)c(F)ccc5[nH]4)nc(N4CCOCC4)nc32)cn1	inhibition [22]: 3%
							100	72		69	22	95	5	97	0	8	0	0	1	Fc1cccc(-n2cnc3c(NCc4nc5c(F)c(F)ccc5[nH]4)nc(N4CCOCC4)nc32)c1	inhibition [23]: 18%; inhibition [22]: 6%
2			55		5		100	69	23	64	40	99	0	99	1	16	2	23	3	Cc1cc(-n2cnc3c(NCc4nc5c(F)c(F)ccc5[nH]4)nc(N4CCOCC4)nc32)no1	inhibition [22]: 8%
29		6070	54	5360	39				54											Cn1cc(-n2cnc3c(NCc4nc5cc(Cl)c(Cl)cc5[nH]4)nc(N4CCOC[C@H]4CO)nc32)cn1	AUC(0-t) [24]: 10 µM·h; Cmax [25]: 1430 ng/mL and 2.7 µM
42		333	77	145	42				69											Cn1cc(-n2cnc3c(NCc4nc5cc(Cl)c(Cl)cc5[nH]4)nc(N4CCOC[C@@H]4CO)nc32)cn1	
